Our source for the IC50, Emax and EC50 values is article doi:10.1101/2025.01.28.635346v1 (bioRxiv, 2025).

For data set [1], the target named is T1, GR (Homo sapiens, UniProt P04150).
T1 sequence (P04150 1-777): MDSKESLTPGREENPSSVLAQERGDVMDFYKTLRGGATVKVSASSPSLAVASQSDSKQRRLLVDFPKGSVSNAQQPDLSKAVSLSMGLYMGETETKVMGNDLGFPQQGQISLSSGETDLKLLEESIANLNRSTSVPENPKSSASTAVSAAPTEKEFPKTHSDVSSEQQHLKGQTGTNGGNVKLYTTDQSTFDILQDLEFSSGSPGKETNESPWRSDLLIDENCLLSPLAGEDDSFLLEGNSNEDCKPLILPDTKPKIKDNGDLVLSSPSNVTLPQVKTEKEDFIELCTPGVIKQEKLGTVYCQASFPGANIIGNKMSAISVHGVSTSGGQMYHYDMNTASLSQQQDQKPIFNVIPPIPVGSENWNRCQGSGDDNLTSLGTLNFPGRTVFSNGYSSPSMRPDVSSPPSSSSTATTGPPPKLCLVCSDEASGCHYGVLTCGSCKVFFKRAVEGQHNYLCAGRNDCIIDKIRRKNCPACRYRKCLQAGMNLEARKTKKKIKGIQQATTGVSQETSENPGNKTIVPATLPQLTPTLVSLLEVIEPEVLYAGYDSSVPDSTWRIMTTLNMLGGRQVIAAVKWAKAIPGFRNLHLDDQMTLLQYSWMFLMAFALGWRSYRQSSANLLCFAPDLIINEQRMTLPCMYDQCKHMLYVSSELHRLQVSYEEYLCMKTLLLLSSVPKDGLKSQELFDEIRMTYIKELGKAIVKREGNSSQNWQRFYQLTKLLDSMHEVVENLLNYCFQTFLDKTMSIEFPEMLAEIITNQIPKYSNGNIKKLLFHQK
The data set can be described thus: Safetyscan47 NHR Protein Interaction, Antagonist. The class given is cell-based. The note with it: for Emax: read-out: Max Response.

Another data set addresses integrin αvβ1 (Homo sapiens, UniProt P05556+P06756). Description: ELISA competition assay, integrin αvβ1. The class given is binding. On the technique in general: An ELISA detects its analyte on a solid surface through an enzyme-linked reagent.
The target in another data set is integrin αvβ8 (Homo sapiens, UniProt P06756+P26012). The data set can be described thus: ELISA competition assay, integrin αvβ8 binding to LAP.
A further data set has as its target T2, MAOA (Homo sapiens, UniProt P21397).
T2 sequence (P21397 1-527): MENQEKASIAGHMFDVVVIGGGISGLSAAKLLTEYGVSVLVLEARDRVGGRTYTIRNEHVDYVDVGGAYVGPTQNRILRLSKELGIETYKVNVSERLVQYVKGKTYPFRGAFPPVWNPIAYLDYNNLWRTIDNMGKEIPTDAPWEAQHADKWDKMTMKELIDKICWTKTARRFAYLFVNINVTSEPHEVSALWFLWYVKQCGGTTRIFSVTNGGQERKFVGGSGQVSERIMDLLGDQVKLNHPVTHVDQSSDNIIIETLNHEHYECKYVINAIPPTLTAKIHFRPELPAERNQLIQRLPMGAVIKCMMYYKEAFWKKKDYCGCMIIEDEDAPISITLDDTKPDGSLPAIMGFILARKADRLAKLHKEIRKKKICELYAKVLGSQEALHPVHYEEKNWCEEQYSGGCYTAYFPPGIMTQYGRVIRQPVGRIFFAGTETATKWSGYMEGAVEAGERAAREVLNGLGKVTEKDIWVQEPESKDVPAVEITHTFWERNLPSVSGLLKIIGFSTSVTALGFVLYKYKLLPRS
The data set can be described thus: Safetyscan47 Non-Kinase Enzymes Enzymatic, Inhibitor. The class given is biochemical. The note with it: for Emax: read-out: Max Response.

The next data set has as its target COX1 (Homo sapiens, UniProt P23219). The description is as above. The class given is biochemical. Conditions: for Emax: read-out: Max Response.
For data set [2], the target named is T1, GR. Description: Safetyscan47 NHR Protein Interaction, Agonist. Type of data set: cell-based. Conditions: for Emax: read-out: Max Response.
The target of a further data set is ADRB1 (Homo sapiens, UniProt P08588). Description: Safetyscan47 GPCR cAMP, Antagonist. Type of data set: cell-based. The note with it: for Emax: read-out: Max Response.
Another data set concerns the target nAChR(a4/b2) (Homo sapiens, UniProt P17787+P43681). Description: Safetyscan47 Ion Channel, Blocker. Type of data set: cell-based. Conditions: for Emax: read-out: Max Response.
The target in the next data set is T3, CHRM1 (Homo sapiens, UniProt P11229).
T3 sequence (P11229 1-460): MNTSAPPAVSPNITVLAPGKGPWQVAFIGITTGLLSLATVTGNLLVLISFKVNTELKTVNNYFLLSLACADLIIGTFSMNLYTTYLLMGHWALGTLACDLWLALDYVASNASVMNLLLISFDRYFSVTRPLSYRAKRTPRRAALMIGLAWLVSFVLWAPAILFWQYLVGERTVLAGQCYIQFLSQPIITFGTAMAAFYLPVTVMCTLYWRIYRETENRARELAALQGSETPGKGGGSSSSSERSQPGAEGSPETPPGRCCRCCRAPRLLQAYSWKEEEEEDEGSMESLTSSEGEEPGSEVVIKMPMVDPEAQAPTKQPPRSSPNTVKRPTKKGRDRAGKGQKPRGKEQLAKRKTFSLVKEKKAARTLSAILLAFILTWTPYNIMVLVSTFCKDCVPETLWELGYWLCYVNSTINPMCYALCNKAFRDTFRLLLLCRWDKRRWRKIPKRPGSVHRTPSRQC
The data set can be described thus: Safetyscan47 GPCR Calcium Flux, Antagonist. Type of data set: cell-based. The note with it: for Emax: read-out: Max Response.

The next data set has as its target HTR1B (Homo sapiens, UniProt P28222). The data set can be described thus: Safetyscan47 GPCR cAMP, Agonist. The class given is cell-based. Conditions: for Emax: read-out: Max Response.
The next data set addresses NAV1.5 (Homo sapiens, UniProt Q14524). Description: Safetyscan47 Ion Channel, Blocker. Type of data set: cell-based.

Bridge positions count the residues as written; N and C are the ends. Side chains are listed from the residue outwards. Peptide text beside a SMILES is read from it. * marks the point of attachment. Butanoyl(4-(4-I-phenyl)) = O=C(CCCc1ccc(I)cc1)*; PEG2 = NCCOCCOCCC(=O)O

Usually IC50 stands for the point on the concentration scale where inhibition reaches its midpoint. The EC50 is the concentration that produces a half-maximal response. A higher EC50 goes with weaker potency. Turning to `CC[C@H](C)[C@H](NC(=O)[C@H](CC(C)C)NC(=O)[C@H](CC(=O)O)NC(=O)CNC(=O)[C@H](CCCNC(=N)N)NC(=O)[C@@H](NC(=O)[C@H](Cc1ccccc1)NC(=O)[C@H](Cc1ccc(O)cc1)NC(=O)[C@@H]1CCC(=O)NCC(=O)NCC(=O)N[C@@H](CCCNC(=N)N)C(=O)NCC(=O)N[C@@H](Cc2c[nH]cn2)C(=O)N[C@@H](C(C)C)C(=O)N2CCC[C@H]2C(=O)N1)C(C)C)C(=O)N[C@@H](CO)C(=O)N[C@@H](Cc1ccccc1)C(=O)N[C@@H](Cc1ccc(O)cc1)C(=O)N[C@@H](CCCCNC(=O)CCOCCOCCNC(=O)CCCc1ccc(I)cc1)C(=O)O` [lassotide 47] (GGRGHVPEYFVRGDLISFYK([PEG2-Butanoyl(4-(4-I-phenyl))])-OH; lactam N-8), the IC50 on GR [1] was more than 45 µM; at integrin αvβ1, 1.23 µM; at integrin αvβ8, 0.0079 µM; at MAOA, more than 45 µM; on COX1 it was more than 45 µM; on ADRB1 it was more than 45 µM. In addition, the IC50 against nAChR(a4/b2), at CHRM1 and against NAV1.5 was more than 45 µM in each case. In addition, the Emax on GR [1] amounted to 0%; on MAOA, 0%; on COX1 it was 19.4%; at GR [2], 0%; on ADRB1 it was 40%; on nAChR(a4/b2), 4.35%. Moreover, the values for the Emax at CHRM1, on HTR1B and on NAV1.5 were 0%, 22.4% and 0%, respectively. Moreover, the concentration giving a half-maximal response (EC50) at GR [2] and at HTR1B was more than 45 µM each time.
For `CC[C@H](C)[C@H](NC(=O)[C@H](CC(C)C)NC(=O)[C@H](CC(=O)O)NC(=O)CNC(=O)[C@H](CCCNC(=N)N)NC(=O)[C@@H](NC(=O)[C@H](Cc1ccccc1)NC(=O)[C@H](Cc1ccc(O)cc1)NC(=O)[C@@H]1CCC(=O)NCC(=O)NCC(=O)N[C@@H](CCCNC(=N)N)C(=O)NCC(=O)N[C@@H](Cc2c[nH]cn2)C(=O)N[C@@H](C(C)C)C(=O)N2CCC[C@H]2C(=O)N1)C(C)C)C(=O)N[C@@H](CO)C(=O)N[C@@H](Cc1ccccc1)C(=O)N[C@@H](Cc1ccc(O)cc1)C(=O)N[C@@H](CCCCN)C(=O)O` [lassotide 36] (GGRGHVPEYFVRGDLISFYK-OH; lactam N-8), the IC50 was more than 45 µM against GR [1]; 0.084 µM at integrin αvβ1; 0.015 µM on integrin αvβ8; more than 45 µM against MAOA; more than 45 µM at COX1; more than 45 µM at ADRB1. Moreover, the IC50 at nAChR(a4/b2), at CHRM1 and at NAV1.5 was more than 45 µM throughout. For the same molecule, the Emax on GR [1] was found to be 0%; on MAOA it was 10.8%; at COX1, 21%; at GR [2], 0%; on ADRB1, 15.6%; at nAChR(a4/b2), 2.98%. The figures for the Emax at CHRM1, at HTR1B and at NAV1.5 were 8.3%, 2.61% and 39.5%, respectively. The EC50 on GR [2] and on HTR1B was more than 45 µM each time.
